{"source": "patent US20130095094A1", "about": "“ASSAY” (University of Leicester, priority 2010, published 2013)", "molecules": {"B1": {"name": "flagellin: S. typhimurium flagellin purchased from Invivogen, TLR5 standard (protein, UniProt P06179 2-495, looked up)", "Flagellin": "AQVINTNSLSLLTQNNLNKSQSALGTAIERLSSGLRINSAKDDAAGQAIANRFTANIKGLTQASRNANDGISIAQTTEGALNEINNNLQRVRELAVQSANSTNSQSDLDSIQAEITQRLNEIDRVSGQTQFNGVKVLAQDNTLTIQVGANDGETIDIDLKQINSQTLGLDTLNVQQKYKVSDTAATVTGYADTTIALDNSTFKASATGLGGTDQKIDGDLKFDDTTGKYYAKVTVTGGTGKDGYYEVSVDKTNGEVTLAGGATSPLTGGLPATATEDVKNVQVANADLTEAKAALTAAGVTGTASVVKMSYTDNNGKTIDGGLAVKVGDDYYSATQNKDGSISINTTKYTADDGTSKTALNKLGGADGKTEVVSIGGKTYAASKAEGHNFKAQPDLAEAAATTTENPLQKIDAALAQVDTLRSDLGAVQNRFNSAITNLGNTVNNLTSARSRIEDSDYATEVSNMSRAQILQQAGTSVLAQANQVPQNVLSLLR"}}, "key": {"[1]": {"test_system": "human monocytes", "experiment": "Challenge of human monocytes with food extracts, TNF-α (L929 bioassay) / IL-6 (ELISA) secretion", "format": "cell-based", "conditions": "25 μg/ml OxPAPC, filter-sterilised food extracts, 4 h", "experimental": "Venous blood was collected by venepuncture from consenting healthy human subjects according to the guidelines laid down in the Declaration of Helsinki and all procedures involving human subjects were approved by the University of Leicester College of Medicine Research Ethics Committee. Written informed consent was obtained from all subjects. Peripheral blood mononuclear cells (PBMC) were prepared by density gradient centrifugation at 800 g for 25 min using Histopaque-1077 (Sigma). Recovered cells were washed twice in PBS solution, resuspended in RPMI/10% fetal calf serum (FCS) (Sigma) and plated in 96-well plates at 4×10^5 cells per well. Monocytes were prepared from PBMC by plastic adherence (1 h at 37° C.), followed by gentle washing to remove non-adherent cells. Remaining monocytes were then challenged by adding a 1:20 dilution of each sterile-filtered food extract in tissue culture medium. After incubation at 37° C. for 4 h, supernatants were removed for assay of TNF-α content by L929-cell bioassay as described in Delahooke et al. (1995, Infect. Immun. 63, 840-846), or IL-6 levels were measured by ELISA (R&D) after 18 h."}, "[2]": {"target": "T1, human TLR-2 (Homo sapiens, UniProt O60603)", "T1 construct": "host or cells: HEK-293", "T1 sequence (O60603 21-784)": "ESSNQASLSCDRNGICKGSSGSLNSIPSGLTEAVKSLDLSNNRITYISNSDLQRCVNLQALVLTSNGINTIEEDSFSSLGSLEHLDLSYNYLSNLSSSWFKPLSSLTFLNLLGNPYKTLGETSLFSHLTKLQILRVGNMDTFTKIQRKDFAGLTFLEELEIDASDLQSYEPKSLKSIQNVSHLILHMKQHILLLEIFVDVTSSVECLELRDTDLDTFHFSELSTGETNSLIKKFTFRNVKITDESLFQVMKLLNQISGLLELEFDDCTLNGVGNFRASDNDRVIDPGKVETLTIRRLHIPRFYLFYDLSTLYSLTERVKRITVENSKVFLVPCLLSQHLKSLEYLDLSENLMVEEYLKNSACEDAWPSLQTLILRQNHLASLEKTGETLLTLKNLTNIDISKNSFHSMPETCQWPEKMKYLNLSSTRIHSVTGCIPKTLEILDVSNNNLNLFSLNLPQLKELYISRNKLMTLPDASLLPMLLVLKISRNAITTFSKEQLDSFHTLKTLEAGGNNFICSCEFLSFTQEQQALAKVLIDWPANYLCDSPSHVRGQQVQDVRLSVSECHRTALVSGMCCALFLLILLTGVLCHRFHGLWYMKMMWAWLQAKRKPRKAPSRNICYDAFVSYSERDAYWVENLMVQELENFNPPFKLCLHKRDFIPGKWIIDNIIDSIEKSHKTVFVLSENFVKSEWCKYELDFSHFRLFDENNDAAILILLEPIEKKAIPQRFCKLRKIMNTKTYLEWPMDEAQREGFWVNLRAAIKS", "experiment": "TLR-transfection NF-κB reporter (pELAM) assay, HEK-293 cells transfected with TLR-2 and CD14", "format": "cell-based", "method": "(§1) For transfection assays, human embryonic kidney (HEK)-293 cells were plated in 96 well plates at 10^4 cells per well and transfected after 24 h using Genejuice (Novagen) according to manufacturer's instructions. The following amounts of constructs were added to each well: 30 ng of human TLR-2, TLR-5 or TLR-4 (co-expressing MD-2), 30 ng of pCD14 and 10 ng of NF-κB-sensitive luciferase-reporter construct (pELAM). Cells were grown for 3 days post transfection prior to 18 h challenge. Promoter expression was calculated as fold induction relative to cells cultured in medium alone +/−SD. Endogenous expression of TLRs in HEK-293 has been ruled out by RT-PCR by the inventor.\n(§2) Log-transformed PAMP concentrations were then plotted against fold-induction of NF-κB reporter to generate a standard curve. […] For example, results presented as 200 ng/g BLP-equivalent means that each gramme of food contains TLR-2-stimulants with a capacity to stimulate TLR-2-signalling equal to that of 200 ng Pam3CSK4. Food extracts were measured at 1:10 dilution in DMEM/10% FCS in duplicate. If signals exceeded the range of the standard curve, further dilutions were prepared and reassayed.\nSamples were then maintained at 100 ° C. for 1 -120 min, before cooling, diluting 1:10 in DMEM/10% FCS and applying to HEK-293 cells transfected with TLR-2 or TLR-4/MD2 for measurement of capacity to induce TLR-signalling as described above. […] Samples were then neutralised by addition of NaOH solution and applied to TLR-transfected HEK-293 cells as described above.\nAs a negative control, parallel samples were supplemented with an equal molarity of NaCl to account for increased salinity of samples due to acid/base neutralisation. […] Control samples were also heat-treated for 10 minutes.\nTLR-stimulants were quantified in both whole heat-treated saliva (100° C. for 10 minutes), intended to reflect total bacteria-associated TLR-stimulants, and in saliva diluted 1:10 in PBS and filter-sterilised (0.22 μm, Acrodisc), intended to reflect soluble TLR-stimulants in human saliva. A recently developed bioassay based upon the measurement of NF-κB-dependent reporter activation in TLR-deficient HEK-293 cells transfected with human TLR2, TLR4/MD2 or TLR5, and callibrated with TLR2-, TLR4- or TLR5-stimulating standards (Erridge et al., 2010, Public Library of Science One 5, e9125), was used to quantify TLR-stimulants in saliva samples. Briefly, cells were plated in 96-well plates at 2×10^4 cells per well and transfected after 24 h using Genejuice (Novagen). Amounts of construct per well were 30 ng of human TLR2, TLR4 (co-expressing MD-2) or TLR5 (Invivogen), 30 ng of CD14 and 10 ng of firefly luciferase-reporter construct driven by the NF-KB dependent E-selectin promoter (pELAM). 3 days after transfection, cells were challenged in triplicate with heat-treated or sterile-filtered saliva samples diluted 1:100 in DMEM/1%FCS. […] After 18 h, NF-κB-dependent reporter expression was measured using Promega Dual-Glo reagent. Fold induction of reporter was calculated relative to cells cultured in medium alone and a standard curve was prepared by plotting fold NF-κB induction vs concentration for each standard PAMP. […] For example, results presented as 200 ng/ml lipopeptide-equivalents indicate that 1 ml of saliva contains TLR2-stimulants with a capacity to stimulate TLR2-signalling equal to that of 200 ng Pam3CSK4. The coefficient of variance of the assay averaged ˜20%. […]"}, "[3]": {"test_system": "HEK-293 cells transfected with CD14 alone", "experiment": "NF-κB reporter in HEK-293 cells transfected with CD14 and reporter alone (no corresponding TLR)", "format": "cell-based, human", "conditions": "data not shown"}, "[4]": {"test_system": "HEK-293 cells transfected with CD14 alone", "conditions": "10 μg/ml, positive control; cited from earlier work"}, "[5]": {"target": "T2, human TLR-5 (Homo sapiens, UniProt O60602)", "T2 construct": "host or cells: HEK-293", "T2 sequence (O60602 21-858)": "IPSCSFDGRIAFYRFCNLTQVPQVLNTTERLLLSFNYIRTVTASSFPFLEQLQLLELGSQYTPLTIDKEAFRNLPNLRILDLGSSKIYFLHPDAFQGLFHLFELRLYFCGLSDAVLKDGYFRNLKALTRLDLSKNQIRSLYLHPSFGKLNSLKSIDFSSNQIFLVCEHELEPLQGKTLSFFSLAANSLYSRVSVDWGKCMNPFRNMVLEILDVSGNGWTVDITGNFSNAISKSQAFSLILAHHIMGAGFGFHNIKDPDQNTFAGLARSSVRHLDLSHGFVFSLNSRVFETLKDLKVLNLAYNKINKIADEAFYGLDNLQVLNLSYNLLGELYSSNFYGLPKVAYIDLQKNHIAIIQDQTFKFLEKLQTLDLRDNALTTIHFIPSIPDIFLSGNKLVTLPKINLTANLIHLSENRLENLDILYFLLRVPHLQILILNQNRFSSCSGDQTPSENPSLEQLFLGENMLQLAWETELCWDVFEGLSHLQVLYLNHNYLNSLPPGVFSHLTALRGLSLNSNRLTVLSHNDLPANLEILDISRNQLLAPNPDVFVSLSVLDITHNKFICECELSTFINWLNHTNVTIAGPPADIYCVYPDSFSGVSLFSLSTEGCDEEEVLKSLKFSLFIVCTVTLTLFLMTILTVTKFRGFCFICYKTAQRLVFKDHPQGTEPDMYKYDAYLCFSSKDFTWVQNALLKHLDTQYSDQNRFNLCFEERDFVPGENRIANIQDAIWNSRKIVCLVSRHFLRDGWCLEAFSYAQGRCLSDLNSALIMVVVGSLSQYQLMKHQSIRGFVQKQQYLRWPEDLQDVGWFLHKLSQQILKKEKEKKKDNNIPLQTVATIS", "experiment": "TLR-transfection NF-κB reporter (pELAM) assay, HEK-293 cells transfected with TLR-5 and CD14", "format": "cell-based", "method": "as §1, §2\nTLR-stimulants were quantified in both whole heat-treated saliva (100° C. for 10 minutes), intended to reflect total bacteria-associated TLR-stimulants, and in saliva diluted 1:10 in PBS and filter-sterilised (0.22 μm, Acrodisc), intended to reflect soluble TLR-stimulants in human saliva. A recently developed bioassay based upon the measurement of NF-κB-dependent reporter activation in TLR-deficient HEK-293 cells transfected with human TLR2, TLR4/MD2 or TLR5, and callibrated with TLR2-, TLR4- or TLR5-stimulating standards (Erridge et al., 2010, Public Library of Science One 5, e9125), was used to quantify TLR-stimulants in saliva samples. […] After 18 h, NF-κB-dependent reporter expression was measured using Promega Dual-Glo reagent. Fold induction of reporter was calculated relative to cells cultured in medium alone and a standard curve was prepared by plotting fold NF-κB induction vs concentration for each standard PAMP. […]"}, "[6]": {"conditions": "pH 1.0 with HCl 2 h or 3 h, then neutralised"}}, "data": [{"molecule": "oxidised palmitoyl-arachidonyl phosphocholine [OxPAPC]", "values": [{"measurement": "TNF-α secretion in response to each stimulant-containing foodstuff in presence of OxPAPC", "setting": "[1]", "result": "completely abrogated"}, {"measurement": "Inhibition of TLR2-dependent signalling induced by patient saliva samples", "setting": "[2]; 25 μg/ml OxPAPC, filter-sterilised saliva 1:100, 18 h", "result": "significantly blocked"}]}, {"molecule": "Pam3CSK4", "values": [{"measurement": "Biological activity (TLR-2 signalling) after heating", "setting": "[2]; 100 ng/ml, 100° C. for up to 2 hours", "result": "not measurably reduced"}, {"measurement": "Minimum concentration to which transfected cells were sensitive", "setting": "[2]; TLR-2 transfected HEK-293", "result": 0.1, "unit": "ng/mL"}, {"measurement": "Capacity to stimulate TLR-2 after low pH treatment", "setting": "[2]; [6]", "result": "did not affect"}, {"measurement": "Biological activity (TLR-2) after protease treatment", "setting": "[2]; proteinase-K 37° C. 1 h", "result": "unaffected"}, {"measurement": "Activation of HEK-293 cells transfected with CD14 alone, or with non-corresponding TLRs", "setting": "[3]", "result": "unable to activate"}]}, {"molecule": "polyinosinic acid [PolyI:C]", "values": [{"measurement": "NF-κB activation in HEK-293 cells", "setting": "[4]", "result": "stimulates NF-κB activation independently of TLR2, TLR4 or TLR5"}]}, {"molecule": "B1", "values": [{"measurement": "Biological activity (TLR5 signalling) after heating", "setting": "[5]; 100 ng/ml, 100° C., by 1 h", "result": "almost completely abolished"}, {"measurement": "Biological activity (TLR5) after low pH treatment", "setting": "[5]; [6]", "result": "increased"}, {"measurement": "Bioactivity (TLR5) after protease treatment", "setting": "[5]; proteinase-K 37° C. 1 h", "result": "abolished"}, {"measurement": "Activation of HEK-293 cells transfected with CD14 alone, or with non-corresponding TLRs", "setting": "[3]", "result": "unable to activate"}]}]}
